Test results from patent US10167262B2, “Herbicidal substituted 3-arylpyrazoles” (FMC CORPORATION, priority 2014, dated 2019).

Columns and labels:
Experiment in all cases: Test E pre-/postemergence greenhouse test, plant response rating 0-100
Type in all cases: in vivo
[1] = system: Brazilian crabgrass (Digitaria horizontalis); conditions: Digitaria horizontalis, post-emergence, Postemergence, scale 0 to 100, read-out: Plant response rating, Crabgrass, Brazil
Procedure, shortened: (§1)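 Pre- and postemergence sprays, vehicle non-phytotoxic solvent containing surfactant; postemergence plants 2–18 cm tall at the 1–4-leaf stage. Scored against controls after 14 to 21 days in a greenhouse, 0 being no effect and 100 complete control.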

[2] = system: hairy beggarticks (Bidens pilosa); conditions: scale 0 to 100; for Beggarticks plant response rating: Preemergence
Procedure, shortened: as §1

[3] = system: barnyardgrass (Echinochloa crus-galli); conditions: scale 0 to 100; for Barnyardgrass plant response rating: Preemergence
Procedure, shortened: as §1

[4] = system: waterhemp (common waterhemp, Amaranthus rudis); conditions: scale 0 to 100; for Waterhemp plant response rating: Preemergence
Procedure, shortened: as §1

[5] = system: dayflower (Virginia (VA) dayflower, Commelina virginica); conditions: scale 0 to 100; for Dayflower, VA plant response rating: Preemergence
Procedure, shortened: as §1

corn (Zea mays) = conditions: scale 0 to 100; for Corn plant response rating: Preemergence
Procedure, shortened: as §1

soybean (Glycine max) = conditions: scale 0 to 100; for Soybean plant response rating: Preemergence
Procedure, shortened: as §1

[6] = system: fall panicum (Panicum dichotomiflorum); conditions: scale 0 to 100; for Panicum, Fall plant response rating: Preemergence
Procedure, shortened: as §1

[7] = system: sandbur (southern sandbur, Cenchrus echinatus); conditions: scale 0 to 100; for Sandbur plant response rating: Preemergence
Procedure, shortened: as §1

[8] = system: wild poinsettia (Euphorbia heterophylla); conditions: scale 0 to 100; for Poinsettia, Wild plant response rating: Preemergence
Procedure, shortened: as §1

[9] = system: Italian ryegrass (Lolium multiflorum); conditions: scale 0 to 100; for Ryegrass, Italian plant response rating: Preemergence
Procedure, shortened: as §1

[10] = system: field bindweed (Convolvulus arvensis); conditions: scale 0 to 100; for Field Bindweed plant response rating: Preemergence
Procedure, shortened: as §1

O=C(c1ccccc1)c1cn(CO)nc1-c1cc(Cl)cc(Cl)c1 [Compound 15, [3-(3,5-dichlorophenyl)-1-(hydroxymethyl)-1H-pyrazol-4-yl]phenylmethanone]
40: Sandbur plant response rating ([7]; 250 g ai/ha)
80%: pest or weed control at 31 g/ha ([4]; Amaranthus tuberculatus, post-emergence, Postemergence, 31 g ai/ha)
100%: pest or weed control at 250 g/ha ([2]; Bidens pilosa, post-emergence, Postemergence, 250 g ai/ha) | pest or weed control at 250 g/ha ([4]; Amaranthus tuberculatus, post-emergence, Postemergence, 250 g ai/ha) | pest or weed control at 500 g/ha ([4]; Amaranthus tuberculatus, post-emergence, Postemergence, 500 g ai/ha)
95%: pest or weed control at 125 g/ha ([4]; Amaranthus tuberculatus, post-emergence, Postemergence, 125 g ai/ha)
30: Sandbur plant response rating ([7]; 62 g ai/ha)
35: Sandbur plant response rating ([7]; 500 g ai/ha)
75: Waterhemp plant response rating ([4]; 250 g ai/ha)
35%: pest or weed control at 500 g/ha ([6]; Panicum dichotomiflorum, post-emergence, Postemergence, 500 g ai/ha)
0: Beggarticks plant response rating ([2]; 31 g ai/ha) | Beggarticks plant response rating ([2]; 62 g ai/ha) | Beggarticks plant response rating ([2]; 125 g ai/ha) | Barnyardgrass plant response rating ([3]; 31 g ai/ha) | Barnyardgrass plant response rating ([3]; 62 g ai/ha) | Barnyardgrass plant response rating ([3]; 125 g ai/ha) | Barnyardgrass plant response rating ([3]; 250 g ai/ha) | Barnyardgrass plant response rating ([3]; 500 g ai/ha) | Waterhemp plant response rating ([4]; 31 g ai/ha) | Dayflower, VA plant response rating ([5]; 31 g ai/ha) | Dayflower, VA plant response rating ([5]; 62 g ai/ha) | Dayflower, VA plant response rating ([5]; 125 g ai/ha) | Dayflower, VA plant response rating ([5]; 500 g ai/ha) | Corn plant response rating (corn (Zea mays); 31 g ai/ha) | Corn plant response rating (corn (Zea mays); 62 g ai/ha) | Corn plant response rating (corn (Zea mays); 125 g ai/ha) | Corn plant response rating (corn (Zea mays); 250 g ai/ha) | Corn plant response rating (corn (Zea mays); 500 g ai/ha) | Soybean plant response rating (soybean (Glycine max); 31 g ai/ha) | Soybean plant response rating (soybean (Glycine max); 62 g ai/ha) | Soybean plant response rating (soybean (Glycine max); 125 g ai/ha) | Soybean plant response rating (soybean (Glycine max); 250 g ai/ha) | Soybean plant response rating (soybean (Glycine max); 500 g ai/ha) | Panicum, Fall plant response rating ([6]; 31 g ai/ha) | Panicum, Fall plant response rating ([6]; 62 g ai/ha) | Panicum, Fall plant response rating ([6]; 125 g ai/ha) | Panicum, Fall plant response rating ([6]; 250 g ai/ha) | Panicum, Fall plant response rating ([6]; 500 g ai/ha) | Sandbur plant response rating ([7]; 31 g ai/ha) | Poinsettia, Wild plant response rating ([8]; 125 g ai/ha) | Poinsettia, Wild plant response rating ([8]; 250 g ai/ha) | Poinsettia, Wild plant response rating ([8]; 500 g ai/ha) | Ryegrass, Italian plant response rating ([9]; 31 g ai/ha) | Ryegrass, Italian plant response rating ([9]; 62 g ai/ha) | Ryegrass, Italian plant response rating ([9]; 125 g ai/ha) | Ryegrass, Italian plant response rating ([9]; 250 g ai/ha) | Ryegrass, Italian plant response rating ([9]; 500 g ai/ha) | Field Bindweed plant response rating ([10]; 31 g ai/ha) | Field Bindweed plant response rating ([10]; 62 g ai/ha) | Field Bindweed plant response rating ([10]; 125 g ai/ha) | Field Bindweed plant response rating ([10]; 250 g ai/ha) | Field Bindweed plant response rating ([10]; 500 g ai/ha)
25: Beggarticks plant response rating ([2]; 250 g ai/ha)
0%: pest or weed control at 31 g/ha ([1]; 31 g ai/ha) | pest or weed control at 62 g/ha ([1]; 62 g ai/ha) | pest or weed control at 125 g/ha ([1]; 125 g ai/ha) | pest or weed control at 250 g/ha ([1]; 250 g ai/ha) | pest or weed control at 500 g/ha ([1]; 500 g ai/ha) | pest or weed control at 31 g/ha ([3]; Echinochloa crus-galli, post-emergence, Postemergence, 31 g ai/ha) | pest or weed control at 62 g/ha ([3]; Echinochloa crus-galli, post-emergence, Postemergence, 62 g ai/ha) | pest or weed control at 125 g/ha ([3]; Echinochloa crus-galli, post-emergence, Postemergence, 125 g ai/ha) | pest or weed control at 250 g/ha ([3]; Echinochloa crus-galli, post-emergence, Postemergence, 250 g ai/ha) | pest or weed control at 500 g/ha ([3]; Echinochloa crus-galli, post-emergence, Postemergence, 500 g ai/ha) | pest or weed control at 31 g/ha ([5]; Commelina virginica, post-emergence, Postemergence, 31 g ai/ha) | pest or weed control at 62 g/ha ([5]; Commelina virginica, post-emergence, Postemergence, 62 g ai/ha) | pest or weed control at 125 g/ha ([5]; Commelina virginica, post-emergence, Postemergence, 125 g ai/ha) | pest or weed control at 250 g/ha ([5]; Commelina virginica, post-emergence, Postemergence, 250 g ai/ha) | pest or weed control at 500 g/ha ([5]; Commelina virginica, post-emergence, Postemergence, 500 g ai/ha) | Corn plant response rating (crop injury, 0 = no effect, 100 = complete kill) at 31 g/ha (corn (Zea mays); Zea mays, post-emergence, Postemergence, 31 g ai/ha) | Corn plant response rating (crop injury, 0 = no effect, 100 = complete kill) at 62 g/ha (corn (Zea mays); Zea mays, post-emergence, Postemergence, 62 g ai/ha) | Corn plant response rating (crop injury, 0 = no effect, 100 = complete kill) at 125 g/ha (corn (Zea mays); Zea mays, post-emergence, Postemergence, 125 g ai/ha) | Corn plant response rating (crop injury, 0 = no effect, 100 = complete kill) at 250 g/ha (corn (Zea mays); Zea mays, post-emergence, Postemergence, 250 g ai/ha) | Corn plant response rating (crop injury, 0 = no effect, 100 = complete kill) at 500 g/ha (corn (Zea mays); Zea mays, post-emergence, Postemergence, 500 g ai/ha) | plant injury at 31 g/ha (soybean (Glycine max); Glycine max, post-emergence, Postemergence, 31 g ai/ha) | plant injury at 62 g/ha (soybean (Glycine max); Glycine max, post-emergence, Postemergence, 62 g ai/ha) | plant injury at 125 g/ha (soybean (Glycine max); Glycine max, post-emergence, Postemergence, 125 g ai/ha) | plant injury at 250 g/ha (soybean (Glycine max); Glycine max, post-emergence, Postemergence, 250 g ai/ha) | plant injury at 500 g/ha (soybean (Glycine max); Glycine max, post-emergence, Postemergence, 500 g ai/ha) | pest or weed control at 31 g/ha ([6]; Panicum dichotomiflorum, post-emergence, Postemergence, 31 g ai/ha) | pest or weed control at 62 g/ha ([6]; Panicum dichotomiflorum, post-emergence, Postemergence, 62 g ai/ha) | pest or weed control at 125 g/ha ([6]; Panicum dichotomiflorum, post-emergence, Postemergence, 125 g ai/ha) | pest or weed control at 250 g/ha ([6]; Panicum dichotomiflorum, post-emergence, Postemergence, 250 g ai/ha) | pest or weed control at 31 g/ha ([7]; Cenchrus echinatus, post-emergence, Postemergence, 31 g ai/ha) | pest or weed control at 62 g/ha ([7]; Cenchrus echinatus, post-emergence, Postemergence, 62 g ai/ha) | pest or weed control at 125 g/ha ([7]; Cenchrus echinatus, post-emergence, Postemergence, 125 g ai/ha) | pest or weed control at 250 g/ha ([7]; Cenchrus echinatus, post-emergence, Postemergence, 250 g ai/ha) | pest or weed control at 500 g/ha ([7]; Cenchrus echinatus, post-emergence, Postemergence, 500 g ai/ha) | pest or weed control at 31 g/ha ([8]; Euphorbia heterophylla, post-emergence, Postemergence, 31 g ai/ha, read-out: Plant response rating, Poinsettia, Wild) | pest or weed control at 62 g/ha ([8]; Euphorbia heterophylla, post-emergence, Postemergence, 62 g ai/ha, read-out: Plant response rating, Poinsettia, Wild) | pest or weed control at 125 g/ha ([8]; Euphorbia heterophylla, post-emergence, Postemergence, 125 g ai/ha, read-out: Plant response rating, Poinsettia, Wild) | pest or weed control at 250 g/ha ([8]; Euphorbia heterophylla, post-emergence, Postemergence, 250 g ai/ha, read-out: Plant response rating, Poinsettia, Wild) | pest or weed control at 500 g/ha ([8]; Euphorbia heterophylla, post-emergence, Postemergence, 500 g ai/ha, read-out: Plant response rating, Poinsettia, Wild) | pest or weed control at 31 g/ha ([9]; Lolium multiflorum, post-emergence, Postemergence, 31 g ai/ha) | pest or weed control at 62 g/ha ([9]; Lolium multiflorum, post-emergence, Postemergence, 62 g ai/ha) | pest or weed control at 125 g/ha ([9]; Lolium multiflorum, post-emergence, Postemergence, 125 g ai/ha) | pest or weed control at 250 g/ha ([9]; Lolium multiflorum, post-emergence, Postemergence, 250 g ai/ha) | pest or weed control at 500 g/ha ([9]; Lolium multiflorum, post-emergence, Postemergence, 500 g ai/ha) | pest or weed control at 31 g/ha ([10]; Convolvulus arvensis, post-emergence, Postemergence, 31 g ai/ha) | pest or weed control at 62 g/ha ([10]; Convolvulus arvensis, post-emergence, Postemergence, 62 g ai/ha) | pest or weed control at 125 g/ha ([10]; Convolvulus arvensis, post-emergence, Postemergence, 125 g ai/ha) | pest or weed control at 250 g/ha ([10]; Convolvulus arvensis, post-emergence, Postemergence, 250 g ai/ha) | pest or weed control at 500 g/ha ([10]; Convolvulus arvensis, post-emergence, Postemergence, 500 g ai/ha)
70: Waterhemp plant response rating ([4]; 62 g ai/ha)
100: Waterhemp plant response rating ([4]; 500 g ai/ha)
90%: pest or weed control at 31 g/ha ([2]; Bidens pilosa, post-emergence, Postemergence, 31 g ai/ha)
98%: pest or weed control at 62 g/ha ([2]; Bidens pilosa, post-emergence, Postemergence, 62 g ai/ha) | pest or weed control at 125 g/ha ([2]; Bidens pilosa, post-emergence, Postemergence, 125 g ai/ha) | pest or weed control at 500 g/ha ([2]; Bidens pilosa, post-emergence, Postemergence, 500 g ai/ha) | pest or weed control at 62 g/ha ([4]; Amaranthus tuberculatus, post-emergence, Postemergence, 62 g ai/ha)
90: Waterhemp plant response rating ([4]; 125 g ai/ha)
50: Sandbur plant response rating ([7]; 125 g ai/ha)
80: Beggarticks plant response rating ([2]; 500 g ai/ha)
